The supplement of paper PMC11061612

Legend:
[1] = system: OACM5-1 (Esophageal Adenocarcinoma); assay: Bliss excess, mean over the matrix (fraction); higher = more synergy
Procedure, shortened: (§1)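 After 24 hours at 37°C and 5% CO2 in 1536-well plates, cells in DMEM/F12 or RPMI plus 10% FBS received two-drug dose matrices for 72 hours. Viability came from CellTiter-Glo 2.0 luminescence and was scaled as inhibition, anchored at 0 by vehicle wells and at 1 by blank wells. Combination Emax is taken as the second-highest inhibition in the matrix, and Bliss excess as the observed combination effect less EA + EB − EA·EB, with EA and EB the single-agent effects.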

[2] = system: DU-145 (Prostate Carcinoma); assay: as above
Procedure, shortened: as §1

[3] = system: NCI-H1092 (Small Cell Lung Carcinoma); assay: combination Emax (second highest fraction inhibited in the dose matrix, 72 h); higher = more inhibition; extreme values may be limits of the assay
Procedure, shortened: as §1

[4] = system: HCC1937 (Breast Carcinoma); assay: as above
Procedure, shortened: as §1

[5] = system: ML-2 (Acute Myeloid Leukemia); assay: as above
Procedure, shortened: as §1

[6] = system: MV-4-11 (Acute Myeloid Leukemia); assay: as above
Procedure, shortened: as §1

[7] = system: SK-N-AS (Neuroblastoma); assay: as above
Procedure, shortened: as §1

[8] = system: NCI-H1993 (Lung Adenocarcinoma); assay: as above
Procedure, shortened: as §1

[9] = system: EJM (Plasma Cell Myeloma); assay: as above
Procedure, shortened: as §1

[10] = system: HCC2998 (Colorectal Carcinoma); assay: as above
Procedure, shortened: as §1

[11] = system: EFO-21 (Ovarian Carcinoma); assay: as above
Procedure, shortened: as §1

[12] = system: ME-180 (Cervical Carcinoma); assay: as above
Procedure, shortened: as §1

[13] = system: G-401 (Other Solid Carcinomas); assay: as above
Procedure, shortened: as §1

[14] = system: HCC1500 (Breast Carcinoma); assay: as above
Procedure, shortened: as §1

[15] = system: NCI-H2122 (Lung Adenocarcinoma); assay: as above
Procedure, shortened: as §1

[16] = system: EW-1 (Ewing's Sarcoma); assay: as above
Procedure, shortened: as §1

[17] = system: Hey (Ovarian Carcinoma); assay: as above
Procedure, shortened: as §1

[18] = system: SW872 (Other Solid Carcinomas); assay: as above
Procedure, shortened: as §1

[19] = system: SW982 (Other Solid Carcinomas); assay: as above
Procedure, shortened: as §1

[20] = system: LC-1-sq (Squamous Cell Lung Carcinoma); assay: as above
Procedure, shortened: as §1
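Throughout, for Bliss excess, mean over the matrix: after 72 h of two-drug dosing.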

SMILES	Bliss excess [1]	Bliss excess [2]	combination Emax [3]	combination Emax [4]	combination Emax [5]	combination Emax [6]	combination Emax [7]	combination Emax [8]	combination Emax [9]	combination Emax [10]	combination Emax [11]	combination Emax [12]	combination Emax [13]	combination Emax [14]	combination Emax [15]	combination Emax [16]	combination Emax [17]	combination Emax [18]	combination Emax [19]	combination Emax [20]
CC(=O)c1c(C)c2cnc(Nc3ccc(N4CCNCC4)cn3)nc2n(C2CCCC2)c1=O [Palbociclib] + Cc1c2c(nn1C)CSCc1cc(n(C)n1)CSc1cc(c3ccccc3c1)OCCCc1c(C(=O)O)n(C)c3c-2c(Cl)ccc13 [AZD5991] (first compound max 10 µM, 7x7, partner max 1 µM)	-0.0456	-0.0216	0.608	0.242	1	1	0.461	0.403	0.443	0.905	0.256	0.151	0.854	0.434	0.773	0.491	0.431	0.228	0.528	0.241
CC(=O)c1c(C)c2cnc(Nc3ccc(N4CCNCC4)cn3)nc2n(C2CCCC2)c1=O [Palbociclib] + Cn1cnc2c(F)c(Nc3ccc(Br)cc3Cl)c(C(=O)NOCCO)cc21 [Selumetinib] (first compound max 10 µM, 7x7, partner max 10 µM)	-0.0247	-0.0326	0.11	0.214	0.869	0.955	0.577	0.69	0.182	0.781	0.245	0.297	0.859	0.193	0.954	0.551	0.623	0.169	0.579	0.235
COc1cccc(OCCCN)c1-c1cc(Nc2cnc(C#N)cn2)n[nH]1 [Prexasertib] + C=CCn1c(=O)c2cnc(Nc3ccc(N4CCN(C)CC4)cc3)nc2n1-c1cccc(C(C)(C)O)n1 [AZD1775] (first compound max 1 µM, partner max 1 µM)	0.105	0.0361	0.756	0.584	1	1	1	0.906	0.954	0.984	0.742	0.652	0.905	0.541	0.984	0.966	0.837	0.933	0.825	0.986
COc1cccc(OCCCN)c1-c1cc(Nc2cnc(C#N)cn2)n[nH]1 [Prexasertib] + CCc1c2c(nc3ccc(O)cc13)-c1cc3c(c(=O)n1C2)COC(=O)[C@]3(O)CC [SN-38] (first compound max 1 µM, 7x7, partner max 0.3 µM)	-0.0675	-0.0423	0.899	0.92	1	1	0.997	0.938	0.952	1	0.671	0.948	0.929	0.934	0.984	0.995	0.843	1	0.796	0.889
COc1cccc(OCCCN)c1-c1cc(Nc2cnc(C#N)cn2)n[nH]1 [Prexasertib] + CN(C)CCCOc1ccc(-c2ccc3ncc4c(c3c2)n(C2CCOCC2)c(=O)n4C)cn1 [AZD0156] (first compound max 1 µM, 7x7, partner max 1 µM)	-0.0235	-0.0405	0.74	0.537	1	0.998	1	0.826	0.93	0.969	0.731	0.324	0.626	0.348	0.975	0.958	0.82	0.863	0.759	0.953
COc1cccc(OCCCN)c1-c1cc(Nc2cnc(C#N)cn2)n[nH]1 [Prexasertib] + C[C@@H]1COCCN1C2=NC(=NC(=C2)C3(CC3)[S@](=N)(=O)C)C4=C5C=CNC5=NC=C4 [AZD6738] (first compound max 1 µM, 7x7, partner max 10 µM)	-0.0153	-0.0844	0.698	0.537	1	1	0.976	0.721	0.947	0.967	0.638	0.485	0.565	0.383	0.99	0.96	0.877	0.884	0.723	0.965
COc1cccc(OCCCN)c1-c1cc(Nc2cnc(C#N)cn2)n[nH]1 [Prexasertib] + Cc1cc2ncnn2cc1Nc1ncc2c(n1)n(C1CCOCC1)c(=O)n2C [AZD7648] (first compound max 1 µM, 7x7, partner max 10 µM)	-0.026	-0.0381	0.707	0.537	1	1	0.984	0.777	0.941	0.954	0.656	0.411	0.588	0.334	0.984	0.962	0.777	0.867	0.774	0.944
COc1cccc(OCCCN)c1-c1cc(Nc2cnc(C#N)cn2)n[nH]1 [Prexasertib] + O=C(c1cc(Cc2n[nH]c(=O)c3ccccc23)ccc1F)N1CCN(C(=O)C2CC2)CC1 [Olaparib] (first compound max 1 µM, 7x7, partner max 10 µM)	-0.054	-0.0144	0.67	0.503	1	0.998	0.995	0.845	0.969	0.957	0.61	0.429	0.533	0.286	1	0.96	0.827	0.937	0.767	0.956
CCc1c2c(nc3ccc(O)cc13)-c1cc3c(c(=O)n1C2)COC(=O)[C@]3(O)CC [SN-38] + CN(C)CCCOc1ccc(-c2ccc3ncc4c(c3c2)n(C2CCOCC2)c(=O)n4C)cn1 [AZD0156] (first compound max 0.3 µM, 7x7, partner max 1 µM)	-0.0642	-0.109	0.323	0.487	1	1	0.737	0.696	0.903	0.867	0.529	0.892	0.596	0.708	0.843	0.982	0.732	0.98	0.803	0.442
Cn1cnc2c(F)c(Nc3ccc(Br)cc3Cl)c(C(=O)NOCCO)cc21 [Selumetinib] + C=CCn1c(=O)c2cnc(Nc3ccc(N4CCN(C)CC4)cc3)nc2n1-c1cccc(C(C)(C)O)n1 [AZD1775] (first compound max 10 µM, partner max 1 µM)	-0.0964	0.0039	0.371	0.562	0.994	0.915	0.817	0.83	0.867	0.806	0.315	0.478	0.828	0.207	0.985	0.883	0.719	0.29	0.633	0.696
Cn1cnc2c(F)c(Nc3ccc(Br)cc3Cl)c(C(=O)NOCCO)cc21 [Selumetinib] + CC(C)n1c(=O)n(C)c2cnc3cc(F)c(-c4ccc(OCCCN5CCCCC5)nc4)cc3c21 [AZD1390] (first compound max 10 µM, 7x7, partner max 0.3 µM)	-0.0273	-0.0312	0.0809	0.208	0.78	0.711	0.422	0.627	0.0932	0.719	0.205	0.209	0.367	0.157	0.864	0.159	0.549	0.203	0.266	0.184
Cn1cnc2c(F)c(Nc3ccc(Br)cc3Cl)c(C(=O)NOCCO)cc21 [Selumetinib] + CCN(CCO)CCCOc1ccc2c(Nc3cc(CC(=O)Nc4cccc(F)c4)[nH]n3)ncnc2c1 [AZD2811] (first compound max 10 µM, 7x7, partner max 1 µM)	0.0404	-0.0077	0.215	0.314	1	0.974	0.496	0.703	0.175	0.792	0.212	0.245	0.561	0.157	0.962	0.391	0.611	0.285	0.594	0.303
Cn1cnc2c(F)c(Nc3ccc(Br)cc3Cl)c(C(=O)NOCCO)cc21 [Selumetinib] + C[C@@H]1COCCN1C2=NC(=NC(=C2)C3(CC3)[S@](=N)(=O)C)C4=C5C=CNC5=NC=C4 [AZD6738] (first compound max 10 µM, 7x7, partner max 10 µM)	-0.0096	-0.0441	0.111	0.421	0.982	0.97	0.817	0.795	0.855	0.899	0.255	0.465	0.684	0.183	0.972	0.892	0.748	0.276	0.593	0.684
